Results as given in ChEMBL document CHEMBL1201862, “PubChem BioAssay data set” (2004).
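Method: 48-hour compound exposure of cells in 96-well plates, five concentrations, linear interpolation of endpoints. GI50 marks 50% less growth.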 The source made the active and inactive calls. Rule as the data show it: active = GI50 up to about 1.1 µM and inactive = higher.

Key:
Experiment in all cases: inhibition of tumour cell growth, NCI panel, 48 h
SNB-19 = test system: SNB-19
COLO 205 = test system: COLO 205
CCRF-CEM = test system: CCRF-CEM
K562 = test system: K562
UACC-257 = test system: UACC-257
OVCAR-4 = test system: OVCAR-4
TK-10 = test system: TK-10
OVCAR-5 = test system: OVCAR-5
LXFL 529 = test system: LXFL 529
MOLT-4 = test system: MOLT-4
SR = test system: SR
OVCAR-3 = test system: OVCAR-3
Malme-3M = test system: Malme-3M
CAKI-1 = test system: CAKI-1
RPMI-8226 = test system: RPMI-8226
SF-295 = test system: SF-295
BT-549 = test system: BT-549
PC-3 = test system: PC-3
Hs-578T = test system: Hs-578T
T47D = test system: T47D

Measured: GI50

O=C(O)Cn1c(=O)[nH]c(=O)c2[nH]cnc21
inactive: SNB-19 > 100 µM | COLO 205 > 100 µM | CCRF-CEM > 100 µM | K562 > 100 µM | UACC-257 > 100 µM | OVCAR-4 > 100 µM | TK-10 > 100 µM | OVCAR-5 > 100 µM | LXFL 529 > 100 µM | MOLT-4 > 100 µM | SR > 100 µM | OVCAR-3 > 100 µM | Malme-3M > 100 µM

N=C(N)NNC(=O)CCn1[nH]c(=O)c(Cl)c(Cl)c1=O
inactive: SNB-19 > 100 µM | CAKI-1 > 100 µM | COLO 205 > 100 µM | CCRF-CEM > 100 µM | RPMI-8226 > 100 µM | K562 > 100 µM | UACC-257 > 100 µM | OVCAR-4 > 100 µM | SF-295 > 100 µM | TK-10 > 100 µM | OVCAR-5 > 100 µM | LXFL 529 > 100 µM | MOLT-4 > 100 µM | OVCAR-3 > 100 µM | Malme-3M > 100 µM

Cc1ccc(C)c(NC(=O)CCC(=O)CC(=O)C(C)(C)C)c1
inactive: SNB-19 > 100 µM | CAKI-1 > 100 µM | COLO 205 > 100 µM | CCRF-CEM > 100 µM | RPMI-8226 > 100 µM | K562 > 100 µM | UACC-257 > 100 µM | OVCAR-4 > 100 µM | TK-10 > 100 µM | OVCAR-5 > 100 µM | LXFL 529 > 100 µM | MOLT-4 > 100 µM | OVCAR-3 > 100 µM | Malme-3M > 100 µM

O=C1[C@@H]2C(c3ccncc3)=NO[C@@H]2C(=O)N1c1ccc(Cc2ccc(N3C(=O)[C@H]4C(c5ccncc5)=NO[C@H]4C3=O)cc2)cc1
inactive: CAKI-1 > 100 µM | COLO 205 > 100 µM | CCRF-CEM > 100 µM | RPMI-8226 > 100 µM | K562 > 100 µM | UACC-257 > 100 µM | OVCAR-4 > 100 µM | SF-295 > 100 µM | TK-10 > 100 µM | OVCAR-5 > 100 µM | LXFL 529 29.3 µM | MOLT-4 > 100 µM | OVCAR-3 > 100 µM | Malme-3M 99.1 µM

COc1ccc2c(c1)N1CCc3cc(OC)c(OC)cc3C1C2 (centres undefined)
inactive: SNB-19 > 100 µM | CAKI-1 53.2 µM | COLO 205 > 100 µM | CCRF-CEM 61 µM | K562 32.3 µM | UACC-257 57.9 µM | OVCAR-4 33.8 µM | SF-295 88.7 µM | TK-10 > 100 µM | LXFL 529 34 µM | MOLT-4 26 µM | SR 34.2 µM | Malme-3M 30.5 µM

Cc1ccc(NC(=O)CSc2nnc(-c3ccc(/N=C\c4ccc(Cl)cc4)cc3)o2)cc1
inactive: SNB-19 > 100 µM | COLO 205 > 100 µM | CCRF-CEM > 100 µM | RPMI-8226 > 100 µM | K562 > 100 µM | UACC-257 > 100 µM | OVCAR-4 > 100 µM | SF-295 > 100 µM | TK-10 > 100 µM | LXFL 529 > 100 µM | MOLT-4 > 100 µM | SR > 100 µM | Malme-3M > 100 µM

CC(C)(C)c1ccc2c(c1)C(O)(c1ccccc1)c1cc(C(C)(C)C)ccc1C2(O)C(F)(F)F (centres undefined)
inactive: SNB-19 2.27 µM | CAKI-1 1.74 µM | COLO 205 1.82 µM | CCRF-CEM 2.13 µM | K562 2.56 µM | UACC-257 2.33 µM | OVCAR-4 1.83 µM | SF-295 1.43 µM | TK-10 3.98 µM | OVCAR-5 1.66 µM | LXFL 529 1.97 µM | MOLT-4 1.77 µM | SR 2.13 µM | OVCAR-3 1.94 µM | Malme-3M 2.51 µM

OC(CCl)CN1CC[N+]2(CC1)CC[N+]1(CCN(CC(O)CCl)CC1)CC2 (centres undefined) [PROSPIDIUM CHLORIDE]
inactive: SNB-19 > 50 µM | CAKI-1 > 50 µM | COLO 205 > 50 µM | CCRF-CEM > 50 µM | RPMI-8226 > 50 µM | K562 > 50 µM | OVCAR-4 > 50 µM | SF-295 > 50 µM | TK-10 > 50 µM | LXFL 529 > 50 µM | MOLT-4 > 50 µM | SR > 50 µM | OVCAR-3 > 50 µM | Malme-3M > 50 µM

CC(O)C(N/C=C1/N=C(c2ccccc2)OC1=O)C(=O)O (centres undefined)
inactive: SNB-19 > 100 µM | CAKI-1 > 100 µM | COLO 205 > 100 µM | CCRF-CEM > 100 µM | RPMI-8226 > 100 µM | K562 > 100 µM | UACC-257 > 100 µM | OVCAR-4 > 100 µM | SF-295 > 100 µM | TK-10 > 100 µM | OVCAR-5 > 100 µM | LXFL 529 > 100 µM | OVCAR-3 > 100 µM | Malme-3M > 100 µM

OC1=CN=C(c2ccccc2)Oc2ccccc21
inactive: SNB-19 42.5 µM | COLO 205 > 100 µM | CCRF-CEM > 100 µM | RPMI-8226 > 100 µM | K562 > 100 µM | UACC-257 > 100 µM | OVCAR-4 47.6 µM | SF-295 32 µM | TK-10 > 100 µM | LXFL 529 > 100 µM | MOLT-4 > 100 µM | OVCAR-3 15.3 µM | Malme-3M > 100 µM

Cc1cc(N(CCC#N)S(=O)(=O)c2ccccc2)ccc1/C=C1\N=C(c2ccc(Cl)cc2)OC1=O
inactive: SNB-19 > 100 µM | CAKI-1 > 100 µM | COLO 205 > 100 µM | CCRF-CEM 55.5 µM | RPMI-8226 > 100 µM | K562 > 100 µM | UACC-257 > 100 µM | OVCAR-4 > 100 µM | SF-295 > 100 µM | OVCAR-5 > 100 µM | LXFL 529 > 100 µM | MOLT-4 > 100 µM | OVCAR-3 > 100 µM | Malme-3M > 100 µM

CCOC(=O)C=C1CCN(C(=O)c2ccccc2)CC1
inactive: SNB-19 > 100 µM | COLO 205 > 100 µM | CCRF-CEM > 100 µM | RPMI-8226 > 100 µM | K562 > 100 µM | UACC-257 > 100 µM | OVCAR-4 > 100 µM | SF-295 > 100 µM | TK-10 > 100 µM | OVCAR-5 > 100 µM | LXFL 529 > 100 µM | MOLT-4 > 100 µM | SR 15.4 µM | OVCAR-3 > 100 µM | Malme-3M > 100 µM

O=c1[nH]c(=O)n(C2CC(O)C(CO)O2)cc1C#Cc1ccc(F)cc1 (centres undefined)
inactive: SNB-19 > 100 µM | CAKI-1 > 100 µM | COLO 205 > 100 µM | CCRF-CEM > 100 µM | RPMI-8226 > 100 µM | K562 > 100 µM | UACC-257 > 100 µM | OVCAR-4 25.8 µM | SF-295 > 100 µM | OVCAR-5 > 100 µM | LXFL 529 > 100 µM | MOLT-4 > 100 µM | SR > 100 µM | OVCAR-3 > 100 µM | Malme-3M > 100 µM

CCOC(=O)c1nc(C)oc1C(F)(F)F
inactive: SNB-19 > 100 µM | CAKI-1 > 100 µM | COLO 205 > 100 µM | CCRF-CEM > 100 µM | K562 > 100 µM | UACC-257 > 100 µM | OVCAR-4 > 100 µM | SF-295 > 100 µM | TK-10 > 100 µM | OVCAR-5 > 100 µM | LXFL 529 > 100 µM | MOLT-4 > 100 µM | SR > 100 µM | OVCAR-3 > 100 µM | Malme-3M > 100 µM

COc1ccc(/C=N/Nc2nc(=S)[nH]c3[nH]ncc23)cc1
inactive: SNB-19 22.2 µM | CAKI-1 32.7 µM | COLO 205 18.3 µM | BT-549 > 100 µM | CCRF-CEM 24.7 µM | RPMI-8226 2.5 µM | K562 > 100 µM | UACC-257 55.6 µM | OVCAR-4 49 µM | SF-295 40.6 µM | PC-3 52.2 µM | TK-10 33.1 µM | OVCAR-5 45.5 µM | MOLT-4 > 100 µM | SR > 100 µM | OVCAR-3 60.7 µM | Malme-3M 38.2 µM | Hs-578T > 100 µM | T47D 14.5 µM

O=C(O)C1C2C=CC(O2)C1C(=O)NCc1cccnc1 (centres undefined)
inactive: SNB-19 > 100 µM | CAKI-1 > 100 µM | COLO 205 > 100 µM | BT-549 > 100 µM | CCRF-CEM > 100 µM | RPMI-8226 > 100 µM | K562 > 100 µM | UACC-257 72.6 µM | OVCAR-4 > 100 µM | SF-295 > 100 µM | PC-3 > 100 µM | TK-10 > 100 µM | OVCAR-5 > 100 µM | MOLT-4 > 100 µM | SR > 100 µM | OVCAR-3 > 100 µM | Malme-3M > 100 µM | Hs-578T 51.8 µM | T47D > 100 µM

O=C(O)c1oc2cccc3c2c1CCC3
inactive: SNB-19 > 100 µM | COLO 205 > 100 µM | CCRF-CEM > 100 µM | RPMI-8226 > 100 µM | K562 > 100 µM | UACC-257 > 100 µM | OVCAR-4 > 100 µM | SF-295 > 100 µM | TK-10 > 100 µM | OVCAR-5 > 100 µM | LXFL 529 > 100 µM | MOLT-4 > 100 µM | SR > 100 µM | OVCAR-3 > 100 µM | Malme-3M > 100 µM

O=C(O)c1cc(=O)c2c(OCC(O)COc3cccc4oc(C(=O)O)cc(=O)c34)cccc2o1
inactive: SNB-19 > 100 µM | CAKI-1 > 100 µM | COLO 205 > 68.4 µM | BT-549 > 100 µM | CCRF-CEM > 71 µM | RPMI-8226 > 70.1 µM | K562 > 90.2 µM | UACC-257 > 80.4 µM | OVCAR-4 > 100 µM | SF-295 > 95.5 µM | PC-3 > 100 µM | TK-10 > 100 µM | OVCAR-5 > 84.3 µM | MOLT-4 > 87.7 µM | SR > 81.8 µM | OVCAR-3 > 100 µM | Malme-3M > 75.3 µM | Hs-578T > 72.4 µM | T47D > 100 µM
